Results as given in ChEMBL document CHEMBL1201862, “PubChem BioAssay data set” (2004).
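In this assay, cells in 96-well plates receive the compound at five concentrations for 48 hours. Endpoints are linearly interpolated between the surrounding concentrations. GI50 is the concentration that inhibits growth by half.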 Calls of active or inactive are those of the source. Cut-off read from the data, not from the text of the source: active = GI50 up to about 1.1 µM and inactive = higher.

Key:
Assay in all cases: NCI anticancer screen, dose series, 48 h
A498 = tested on: A498
EKVX = tested on: EKVX
HL-60 = tested on: HL-60
HT-29 = tested on: HT-29
KM12 = tested on: KM12
LXFL 529 = tested on: LXFL 529
Malme-3M = tested on: Malme-3M
NCI-H226 = tested on: NCI-H226
OVCAR-5 = tested on: OVCAR-5
SF-295 = tested on: SF-295
SK-MEL-5 = tested on: SK-MEL-5
SN12C = tested on: SN12C
SNB-75 = tested on: SNB-75
U-251 = tested on: U-251
UO-31 = tested on: UO-31
HOP-62 = tested on: HOP-62
HOP-92 = tested on: HOP-92
M14 = tested on: M14
BT-549 = tested on: BT-549
MCF7 = tested on: MCF7

Measured: GI50

Nc1ncnc2c1ncn2CCOC(c1ccccc1)P(=O)(O)O (stereo not given)
inactive: A498 > 100 µM | EKVX > 100 µM | HL-60 > 100 µM | HT-29 > 100 µM | KM12 > 100 µM | LXFL 529 > 100 µM | Malme-3M > 100 µM | NCI-H226 > 100 µM | OVCAR-5 > 100 µM | SF-295 > 100 µM | SK-MEL-5 > 100 µM | SN12C > 100 µM | SNB-75 > 100 µM | U-251 > 100 µM | UO-31 > 100 µM

CCCC(=O)OCC(O)CO (stereo not given)
inactive: HL-60 2920 µM | HOP-62 > 5000 µM | HOP-92 3080 µM | HT-29 > 5000 µM | KM12 > 5000 µM | LXFL 529 > 5000 µM | M14 > 5000 µM | Malme-3M 3610 µM | NCI-H226 > 5000 µM | OVCAR-5 2810 µM | SF-295 > 5000 µM | SK-MEL-5 4970 µM | SN12C > 5000 µM | SNB-75 > 5000 µM | U-251 > 5000 µM | UO-31 2860 µM

COC(=O)c1nc(-c2ccc(Cl)c(Cl)c2)nc2ccc(Cl)cc12
inactive: A498 73.1 µM | EKVX 59.7 µM | HL-60 > 100 µM | HOP-92 10.8 µM | HT-29 > 100 µM | KM12 > 100 µM | LXFL 529 > 100 µM | Malme-3M > 100 µM | OVCAR-5 27.4 µM | SF-295 37.7 µM | SK-MEL-5 > 100 µM | SN12C > 100 µM | SNB-75 19.6 µM | U-251 43.7 µM | UO-31 33.6 µM

CC(=O)OC12c3ccccc3C1CCCCCC21OCCCO1 (stereo not given)
inactive: A498 > 100 µM | HL-60 > 100 µM | HOP-62 > 100 µM | HT-29 > 100 µM | KM12 > 100 µM | LXFL 529 > 100 µM | M14 > 100 µM | NCI-H226 > 100 µM | OVCAR-5 > 100 µM | SF-295 > 100 µM | SK-MEL-5 > 100 µM | SN12C > 100 µM | SNB-75 > 100 µM | U-251 > 100 µM | UO-31 > 100 µM

COC(=O)C1=C(c2cc(OC)c(OC)c(OC)c2)OC(c2ccc3c(c2)OCO3)C1 (stereo not given)
inactive: A498 8.95 µM | EKVX 27 µM | HOP-62 35.7 µM | HOP-92 24.8 µM | HT-29 27.2 µM | KM12 13.2 µM | LXFL 529 25.3 µM | M14 29.4 µM | Malme-3M 72.1 µM | NCI-H226 56 µM | OVCAR-5 64.4 µM | SF-295 18.5 µM | SK-MEL-5 19.1 µM | SN12C 20.3 µM | SNB-75 39.4 µM | U-251 19.6 µM | UO-31 15.5 µM

CNC(=S)NC1CCCCC1NC(=S)NC (stereo not given)
inactive: EKVX > 100 µM | HL-60 > 100 µM | HOP-62 > 100 µM | HOP-92 > 100 µM | HT-29 > 100 µM | KM12 > 100 µM | LXFL 529 > 100 µM | M14 > 100 µM | Malme-3M > 100 µM | NCI-H226 > 100 µM | OVCAR-5 > 100 µM | SF-295 > 100 µM | SK-MEL-5 > 100 µM | SN12C > 100 µM | SNB-75 > 100 µM | U-251 > 100 µM | UO-31 > 100 µM

O=C(N/C(=C\c1cccc([N+](=O)[O-])c1)c1nc2ccccc2[nH]1)c1ccccc1
inactive: A498 35.8 µM | EKVX > 100 µM | HOP-62 42.8 µM | HOP-92 40.6 µM | HT-29 28.9 µM | KM12 69 µM | LXFL 529 26.1 µM | M14 66.8 µM | Malme-3M > 100 µM | NCI-H226 51.6 µM | OVCAR-5 63.4 µM | SK-MEL-5 41.1 µM | SN12C 68.7 µM | SNB-75 36.4 µM | U-251 44 µM | UO-31 16.6 µM

CC(C)C(/C=C/c1ccc(Br)cc1)=N\NC(N)=O
inactive: EKVX > 100 µM | HL-60 > 100 µM | HOP-62 > 100 µM | HOP-92 > 100 µM | HT-29 > 100 µM | KM12 > 100 µM | LXFL 529 56.4 µM | M14 > 100 µM | NCI-H226 > 100 µM | OVCAR-5 > 100 µM | SF-295 > 100 µM | SK-MEL-5 > 100 µM | SN12C > 100 µM | SNB-75 > 100 µM | U-251 > 100 µM | UO-31 18.2 µM

CN(C)CC1CCC/C1=N\O (stereo not given)
inactive: A498 > 100 µM | HOP-62 > 100 µM | HOP-92 > 100 µM | HT-29 > 100 µM | LXFL 529 > 100 µM | M14 > 100 µM | NCI-H226 > 100 µM | OVCAR-5 > 100 µM | SF-295 > 100 µM | SK-MEL-5 > 100 µM | SN12C > 100 µM | SNB-75 > 100 µM | U-251 > 100 µM | UO-31 > 100 µM

Cc1ccc(C2=C(c3ccc(C)cc3)C(c3ccc(C)cc3)=C(c3ccc(C)cc3)C2=O)cc1
inactive: A498 > 100 µM | EKVX > 100 µM | HOP-62 > 100 µM | HT-29 > 100 µM | KM12 > 100 µM | LXFL 529 > 100 µM | M14 > 100 µM | Malme-3M > 100 µM | NCI-H226 > 100 µM | OVCAR-5 > 100 µM | SF-295 > 100 µM | SK-MEL-5 > 100 µM | SN12C > 100 µM | SNB-75 > 100 µM | U-251 > 100 µM | UO-31 > 100 µM

COc1ccc(/C(CC2OC(=O)c3ccccc32)=N\NC(N)=O)cc1 (stereo not given)
inactive: A498 > 100 µM | BT-549 > 100 µM | EKVX > 100 µM | HL-60 > 100 µM | HOP-62 > 100 µM | HOP-92 > 100 µM | HT-29 > 100 µM | KM12 > 100 µM | M14 > 100 µM | MCF7 > 100 µM | Malme-3M > 100 µM | NCI-H226 > 100 µM | OVCAR-5 > 100 µM | SF-295 > 100 µM | SK-MEL-5 > 100 µM | SN12C > 100 µM | SNB-75 > 100 µM | U-251 > 100 µM | UO-31 > 100 µM

O=[N+]([O-])c1cc(Cl)ccc1S(=O)(=O)c1ccccc1
inactive: A498 > 100 µM | BT-549 60.7 µM | EKVX > 100 µM | HL-60 38.9 µM | HOP-62 39.7 µM | HOP-92 82 µM | HT-29 74.6 µM | KM12 > 100 µM | M14 > 100 µM | MCF7 > 100 µM | Malme-3M 52.8 µM | NCI-H226 67.6 µM | OVCAR-5 > 100 µM | SF-295 > 100 µM | SK-MEL-5 49.2 µM | SN12C > 100 µM | SNB-75 30.8 µM | U-251 > 100 µM | UO-31 > 100 µM
